Measurements published in patent US12371454B2, “Cyclic peptide compound having Kras inhibitory action” (priority 2019, dated 2025).
Starred links: 1 amine or outer side, 2 acyl side, 3 side chain; linkers in the order of their positions; H or OH if unused. Positions of bridges follow the written chain, without caps; N, C: chain ends. Non-standard residues stand in square brackets, D forms with d. Residues, ends and D or L forms follow the SMILES beside them. *: point of attachment. hPhe(3,5-F2-4-CF3) = N[C@@H](CCc1cc(F)c(C(F)(F)F)c(F)c1)C(=O)O; hPhe(3-Cl-4-CF3) = N[C@@H](CCc1ccc(C(F)(F)F)c(Cl)c1)C(=O)O; hPhe(3-F,4-CF3) = N[C@@H](CCc1ccc(C(F)(F)F)c(F)c1)C(=O)O; NEtPhe(4-CF3) = CCN[C@@H](Cc1ccc(C(F)(F)F)cc1)C(=O)O; NMePhe(4-CF3) = CN[C@@H](Cc1ccc(C(F)(F)F)cc1)C(=O)O; hPhe(4-CF3) = N[C@@H](CCc1ccc(C(F)(F)F)cc1)C(=O)O; NMeAla(4-thiazolyl) = CN[C@@H](Cc1cscn1)C(=O)O; NMePhe(4-CN) = CN[C@@H](Cc1ccc(C#N)cc1)C(=O)O; NMePhe(4-Cl) = CN[C@@H](Cc1ccc(Cl)cc1)C(=O)O; NMePhe(4-Me) = CN[C@@H](Cc1ccc(C)cc1)C(=O)O; NMePhe(3-F) = CN[C@@H](Cc1cccc(F)c1)C(=O)O; hPhe(4-Cl) = N[C@@H](CCc1ccc(Cl)cc1)C(=O)O; NMedβ3hAla = C[C@H](CC(=O)[*:2])N(C)[*:1]; NMeGly(cPent) = CN[C@H](C(=O)O)C1CCCC1; Pro(4,4-F2) = O=C(O)[C@@H]1CC(F)(F)CN1; NMeCha = CN[C@@H](CC1CCCCC1)C(=O)O; NMeGly(cPr) = CN[C@H](C(=O)O)C1CC1; Gly(N-(CH2)2OEt) = CCOCCNCC(=O)O; NMeF = CN[C@@H](Cc1ccccc1)C(=O)O; NMeI = CC[C@H](C)[C@H](NC)C(=O)O; NMeD = CN[C@@H](CC(=O)O)C(=O)O; NMeL = CN[C@@H](CC(C)C)C(=O)O; NMeV = CN[C@H](C(=O)O)C(C)C; d(β3hA) = C[C@@H](N)CC(=O)O; NMeS = CN[C@@H](CO)C(=O)O; Pip = O=C(O)[C@@H]1CCCCN1; dPip = O=C(O)[C@H]1CCCCN1; NMeA = CN[C@@H](C)C(=O)O; Piperidide = C1CCN(*)CC1; dNMeA = CN[C@H](C)C(=O)O; Ac5c = NC1(C(=O)O)CCCC1; Aze = O=C(O)[C@@H]1CCN1; Ac4c = NC1(C(=O)O)CCC1; Sar = CNCC(=O)O

Target: T1, Kras and SOS1 (biotin-tagged human Kras loaded with GDP, His-tagged human SOS1) (Homo sapiens, UniProt P01116, G12D)
T1 construct: made in house; host or cells: E. coli (stated for Kras only)
Test: Protein-protein interaction inhibition between Kras and SOS1 (KrasGl2D-SOS PPI) using AlphaScreen
Assay type: binding
Conditions: AlphaScreen; biotin-tagged human Kras loaded with GDP, His-tagged human SOS1; read-out: KRAS G12D-SOS PPI IC50
Outline: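 Kras was produced in E. coli, purified, then loaded with GDP. It was paired via streptavidin acceptor beads with His-SOS1 held on nickel donor beads, and proximity signal at 520-620 nm was read after 680 nm illumination.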

T1 sequence (P01116 1-188 isoform P01116-2 G12D): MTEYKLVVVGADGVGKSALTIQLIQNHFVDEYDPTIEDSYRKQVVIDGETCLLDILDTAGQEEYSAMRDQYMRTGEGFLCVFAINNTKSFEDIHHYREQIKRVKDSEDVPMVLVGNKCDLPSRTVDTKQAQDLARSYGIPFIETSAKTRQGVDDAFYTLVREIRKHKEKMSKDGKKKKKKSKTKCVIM

Compound | IC50 [nM]
CC[C@H](C)[C@@H]1NC(=O)[C@H](C)N(C)C(=O)C[C@@H](C)NC(=O)[C@H](C2CCCC2)N(C)C(=O)C2(CCCC2)NC(=O)[C@@H]2CCCN2C(=O)[C@H](CCc2ccc(C(F)(F)F)c(Cl)c2)NC(=O)[C@@H](C)N(C)C(=O)[C@H](Cc2cccc(F)c2)N(C)C(=O)CN(C)C(=O)CN(C)C1=O [Compound 830] (cyclo([Ac5c][NMeGly(cPent)][d(β3hA)][NMeA]I[Sar][Sar][NMePhe(3-F)][dNMeA][hPhe(3-Cl-4-CF3)]P)) | 280
CC[C@H](C)[C@@H]1NC(=O)[C@H](C)N(C)C(=O)C[C@@H](C)NC(=O)[C@H](C(C)C)N(C)C(=O)C2(CCCC2)NC(=O)[C@@H]2CCCN2C(=O)[C@H](CCc2ccc(C(F)(F)F)c(Cl)c2)NC(=O)[C@@H](C)N(C)C(=O)[C@H](CC2CCCCC2)N(C)C(=O)[C@@H]2CCN2C(=O)[C@H](C)N(C)C1=O [Compound 831] (cyclo([Ac5c][NMeV][d(β3hA)][NMeA]I[NMeA][Aze][NMeCha][dNMeA][hPhe(3-Cl-4-CF3)]P)) | 180
CC[C@H](C)[C@@H]1NC(=O)[C@H](CC(C)C)N(C)C(=O)C[C@@H](C)N(C)C(=O)[C@H]([C@@H](C)CC)N(C)C(=O)C2(CCC2)NC(=O)[C@@H]2CC(F)(F)CN2C(=O)[C@H](CCc2ccc(C(F)(F)F)c(Cl)c2)NC(=O)CN(C)C(=O)[C@H](Cc2ccc(C(F)(F)F)cc2)N(CC)C(=O)[C@@H]2CCN2C(=O)[C@H](C)N(C)C1=O [Compound 833] (cyclo([Ac4c][NMeI][NMedβ3hAla][NMeL]I[NMeA][Aze][NEtPhe(4-CF3)][Sar][hPhe(3-Cl-4-CF3)][Pro(4,4-F2)])) | 9.1
CC[C@H](C)[C@@H]1NC(=O)[C@H](C)N(C)C(=O)C[C@@H](C)NC(=O)[C@H](C(C)C)N(C)C(=O)C2(CCCC2)NC(=O)[C@@H]2CCCN2C(=O)[C@H](CCc2ccc(C(F)(F)F)c(Cl)c2)NC(=O)[C@H]2CCCCN2C(=O)[C@H](CC2CCCCC2)N(C)C(=O)[C@@H]2CCCN2C(=O)CN(C)C1=O [Compound 834] (cyclo([Ac5c][NMeV][d(β3hA)][NMeA]I[Sar]P[NMeCha][dPip][hPhe(3-Cl-4-CF3)]P)) | 57
CC[C@H](C)[C@@H]1NC(=O)[C@@H]2CCCCN2C(=O)C[C@@H](C(=O)N2CCCCC2)N(C)C(=O)[C@H](C(C)C)N(C)C(=O)C2(CCCC2)NC(=O)[C@@H]2CCCN2C(=O)[C@H](CCc2ccc(Cl)cc2)NC(=O)CN(C)C(=O)[C@H](CC2CCCCC2)N(C)C(=O)CN(C)C(=O)CN(C)C1=O [Compound 841] ([Pip]I[Sar][Sar][NMeCha][Sar][hPhe(4-Cl)]P[Ac5c][NMeV][NMeD]-Piperidide; lactam N-11) | 24
CC[C@H](C)[C@@H]1NC(=O)[C@H](C2CC2)N(C)C(=O)C[C@@H](C)NC(=O)[C@H](C(C)C)N(C)C(=O)C2(CCCC2)NC(=O)[C@@H]2CCCN2C(=O)[C@H](CCc2ccc(C(F)(F)F)c(Cl)c2)NC(=O)CN(C)C(=O)[C@H](CC2CCCCC2)N(C)C(=O)CN(C)C(=O)CN(C)C1=O [Compound 844] (cyclo([Ac5c][NMeV][d(β3hA)][NMeGly(cPr)]I[Sar][Sar][NMeCha][Sar][hPhe(3-Cl-4-CF3)]P)) | 28
CC[C@H](C)[C@@H]1NC(=O)[C@@H]2CCCCN2C(=O)C[C@@H](C)NC(=O)[C@H](CC(C)C)N(C)C(=O)C2(CCCC2)NC(=O)[C@H](CC(C)C)N(C)C(=O)[C@H](CCc2ccc(C(F)(F)F)cc2)NC(=O)CN(C)C(=O)[C@H](Cc2ccc(Cl)cc2)N(C)C(=O)CN(C)C(=O)CN(C)C1=O [Compound 847] (cyclo([Ac5c][NMeL][d(β3hA)][Pip]I[Sar][Sar][NMePhe(4-Cl)][Sar][hPhe(4-CF3)][NMeL])) | 54
CC[C@H](C)[C@@H]1NC(=O)[C@H](CC(C)C)N(C)C(=O)C[C@@H](C(=O)N2CCCCC2)N(C)C(=O)[C@H](COC)N(C)C(=O)C2(CCCC2)NC(=O)[C@@H]2CCCN2C(=O)[C@H](CCc2ccc(C(F)(F)F)c(Cl)c2)NC(=O)CN(C)C(=O)[C@H](CC2CCCCC2)N(C)C(=O)CN(C)C(=O)CN(C)C1=O [Compound 850] ([NMeL]I[Sar][Sar][NMeCha][Sar][hPhe(3-Cl-4-CF3)]P[Ac5c][NMeS](Me)[NMeD]-Piperidide; lactam N-11) | 24
CC[C@H](C)[C@@H]1NC(=O)[C@H](C(C)C)N(C)C(=O)C[C@@H](C)NC(=O)[C@H](CC(C)C)N(C)C(=O)C2(CCCC2)NC(=O)[C@H](CC(C)C)N(C)C(=O)[C@H](CCc2ccc(C(F)(F)F)c(F)c2)NC(=O)CN(C)C(=O)[C@H](Cc2ccc(Cl)cc2)N(C)C(=O)CN(C)C(=O)CN(C)C1=O [Compound 851] (cyclo([Ac5c][NMeL][d(β3hA)][NMeV]I[Sar][Sar][NMePhe(4-Cl)][Sar][hPhe(3-F,4-CF3)][NMeL])) | 27
CC[C@H](C)[C@@H]1NC(=O)[C@H](CC(C)C)N(C)C(=O)C[C@@H](C(=O)N(C)C)N(C)C(=O)[C@H]([C@@H](C)CC)N(C)C(=O)[C@H](C)NC(=O)[C@H](Cc2cscn2)N(C)C(=O)[C@H](CCc2ccc(C(F)(F)F)c(Cl)c2)NC(=O)CN(C)C(=O)[C@H](Cc2ccc(C)cc2)N(C)C(=O)[C@@H]2CCN2C(=O)[C@H](C)N(C)C1=O [Compound 856] ([NMeL]I[NMeA][Aze][NMePhe(4-Me)][Sar][hPhe(3-Cl-4-CF3)][NMeAla(4-thiazolyl)]A[NMeI][NMeD]-NMe2; lactam N-11) | 14
CC[C@H](C)[C@@H]1NC(=O)[C@H](C2CCCC2)N(C)C(=O)C[C@@H](C)NC(=O)[C@H](C(C)C)N(C)C(=O)C2(CCCC2)NC(=O)[C@@H]2CCCN2C(=O)[C@H](CCc2ccc(C(F)(F)F)c(Cl)c2)NC(=O)CN(C)C(=O)[C@H](CC2CCCCC2)N(C)C(=O)CN(C)C(=O)CN(C)C1=O [Compound 857] (cyclo([Ac5c][NMeV][d(β3hA)][NMeGly(cPent)]I[Sar][Sar][NMeCha][Sar][hPhe(3-Cl-4-CF3)]P)) | 17
CC[C@H](C)[C@@H]1NC(=O)[C@H](C)N(C)C(=O)C[C@@H](C(=O)N2CCCCC2)NC(=O)[C@H](CC(C)C)N(C)C(=O)[C@H](Cc2ccccc2)N(C)C(=O)[C@H](CC(C)C)NC(=O)[C@H](CCc2ccc(C(F)(F)F)c(Cl)c2)NC(=O)CN(C)C(=O)[C@H](Cc2ccc(Cl)cc2)N(C)C(=O)CN(C)C(=O)CN(C)C1=O [Compound 861] ([NMeA]I[Sar][Sar][NMePhe(4-Cl)][Sar][hPhe(3-Cl-4-CF3)]L[NMeF][NMeL]D-Piperidide; lactam N-11) | 4.5
CC[C@H](C)[C@@H]1NC(=O)[C@H](CC(C)C)N(C)C(=O)C[C@@H](C)N(C)C(=O)[C@H]([C@@H](C)CC)N(C)C(=O)C2(CCCC2)NC(=O)[C@@H]2CC(F)(F)CN2C(=O)[C@H](CCc2cc(F)c(C(F)(F)F)c(F)c2)NC(=O)CN(C)C(=O)[C@H](Cc2ccc(C(F)(F)F)cc2)N(C)C(=O)[C@@H]2CCN2C(=O)[C@H](C)N(C)C1=O [Compound 863] (cyclo([Ac5c][NMeI][NMedβ3hAla][NMeL]I[NMeA][Aze][NMePhe(4-CF3)][Sar][hPhe(3,5-F2-4-CF3)][Pro(4,4-F2)])) | 2.5
CCOCCN1CC(=O)N(C)[C@@H](CC2CCCCC2)C(=O)N(C)CC(=O)N[C@@H](CCc2ccc(C(F)(F)F)c(Cl)c2)C(=O)N2CCC[C@H]2C(=O)NC2(CCCC2)C(=O)N(C)[C@@H](C(C)C)C(=O)N[C@H](C)CC(=O)N(C)[C@@H](CC(C)C)C(=O)N[C@@H]([C@@H](C)CC)C(=O)N(C)CC1=O [Compound 864] (cyclo([Ac5c][NMeV][d(β3hA)][NMeL]I[Sar][Gly(N-(CH2)2OEt)][NMeCha][Sar][hPhe(3-Cl-4-CF3)]P)) | 73
CC[C@H](C)[C@@H]1NC(=O)[C@H](C)N(C)C(=O)C[C@@H](C)NC(=O)[C@H](C(C)C)N(C)C(=O)[C@H](Cc2ccccc2)N(C)C(=O)[C@@H]2CCCN2C(=O)[C@H](CCc2ccc(C(F)(F)F)cc2)NC(=O)CN(C)C(=O)[C@H](Cc2ccc(Cl)cc2)N(C)C(=O)CN(C)C(=O)CN(C)C1=O [Compound 865] (cyclo(I[Sar][Sar][NMePhe(4-Cl)][Sar][hPhe(4-CF3)]P[NMeF][NMeV][d(β3hA)][NMeA])) | 55
CC[C@H](C)[C@@H]1NC(=O)[C@H](CC(C)C)N(C)C(=O)C[C@@H](C(=O)N2CCCCC2)N(C)C(=O)[C@H](C(C)C)N(C)C(=O)C2(CCCC2)NC(=O)[C@@H]2CCCN2C(=O)[C@H](CCc2ccc(C(F)(F)F)c(Cl)c2)NC(=O)CN(C)C(=O)[C@H](Cc2ccc(C#N)cc2)N(C)C(=O)CN(C)C(=O)CN(C)C1=O [Compound 867] ([NMeL]I[Sar][Sar][NMePhe(4-CN)][Sar][hPhe(3-Cl-4-CF3)]P[Ac5c][NMeV][NMeD]-Piperidide; lactam N-11) | 3.4
CC[C@H](C)[C@@H]1NC(=O)[C@H](CC(C)C)N(C)C(=O)C[C@@H](C)N(C)C(=O)[C@H]([C@@H](C)CC)N(C)C(=O)C2(CCC2)NC(=O)[C@@H]2CC(F)(F)CN2C(=O)[C@H](CCc2ccc(C(F)(F)F)c(Cl)c2)NC(=O)CN(C)C(=O)[C@H](Cc2ccc(C)cc2)N(C)C(=O)CN(C)C(=O)CN(C)C1=O [Compound 869] (cyclo([Ac4c][NMeI][NMedβ3hAla][NMeL]I[Sar][Sar][NMePhe(4-Me)][Sar][hPhe(3-Cl-4-CF3)][Pro(4,4-F2)])) | 9.8
CC[C@H](C)[C@@H]1NC(=O)[C@H](C)N(C)C(=O)C[C@@H](C)NC(=O)[C@H](CC(C)C)N(C)C(=O)[C@H](Cc2ccccc2)N(C)C(=O)[C@@H]2CC(F)(F)CN2C(=O)[C@H](CCc2ccc(C(F)(F)F)cc2)NC(=O)CN(C)C(=O)[C@H](Cc2ccc(Cl)cc2)N(C)C(=O)CN(C)C(=O)CN(C)C1=O [Compound 870] (cyclo(I[Sar][Sar][NMePhe(4-Cl)][Sar][hPhe(4-CF3)][Pro(4,4-F2)][NMeF][NMeL][d(β3hA)][NMeA])) | 15
